According to PubChem BioAssay (NCI):
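48-hour exposure; five concentrations; linearly interpolated endpoints. Here, GI50 denotes the concentration required for 50% inhibition of growth. TGI is the concentration that stops growth completely.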

Tests used:
Test in all cases: growth of human tumour cells (NCI), 48 h
LOX IMVI melanoma = tested on: LOX IMVI melanoma
T-47D breast = tested on: T-47D breast
SK-OV-3 ovarian = tested on: SK-OV-3 ovarian
OVCAR-4 ovarian = tested on: OVCAR-4 ovarian
MOLT-4 leukemia = tested on: MOLT-4 leukemia
OVCAR-8 ovarian = tested on: OVCAR-8 ovarian
HCT-15 colon = tested on: HCT-15 colon
OVCAR-3 ovarian = tested on: OVCAR-3 ovarian
SW-620 colon = tested on: SW-620 colon
HS 578T breast = tested on: HS 578T breast
A549 NSCLC = tested on: A549 NSCLC
SF-268 CNS = tested on: SF-268 CNS
HCT-116 colon = tested on: HCT-116 colon
HOP-62 NSCLC = tested on: HOP-62 NSCLC
SNB-19 CNS = tested on: SNB-19 CNS
M14 melanoma = tested on: M14 melanoma
DU-145 prostate = tested on: DU-145 prostate
PC-3 prostate = tested on: PC-3 prostate
NCI-H226 lung = tested on: NCI-H226 lung
MDA-MB-231 breast = tested on: MDA-MB-231 breast
786-0 renal = tested on: 786-0 renal
MDA-MB-435 = tested on: MDA-MB-435
COLO 205 colon = tested on: COLO 205 colon
NCI-H460 lung = tested on: NCI-H460 lung
KM12 colon = tested on: KM12 colon
OVCAR-5 ovarian = tested on: OVCAR-5 ovarian
K-562 leukemia = tested on: K-562 leukemia
MCF7 breast = tested on: MCF7 breast
UACC-257 melanoma = tested on: UACC-257 melanoma
TK-10 renal = tested on: TK-10 renal
SK-MEL-2 melanoma = tested on: SK-MEL-2 melanoma
SNB-75 CNS = tested on: SNB-75 CNS
NCI-H522 lung = tested on: NCI-H522 lung
UACC-62 melanoma = tested on: UACC-62 melanoma
U251 CNS = tested on: U251 CNS
HL-60(TB) leukemia = tested on: HL-60(TB) leukemia
NCI-H23 lung = tested on: NCI-H23 lung
SN12C renal = tested on: SN12C renal
BT-549 breast = tested on: BT-549 breast
HT29 colon = tested on: HT29 colon
IGROV1 ovarian = tested on: IGROV1 ovarian
SF-539 CNS = tested on: SF-539 CNS
NCI/ADR-RES ovarian = tested on: NCI/ADR-RES ovarian
MALME-3M melanoma = tested on: MALME-3M melanoma
SR leukemia = tested on: SR leukemia
SF-295 CNS = tested on: SF-295 CNS
CCRF-CEM leukemia = tested on: CCRF-CEM leukemia
SK-MEL-28 melanoma = tested on: SK-MEL-28 melanoma
RXF 393 renal = tested on: RXF 393 renal
HOP-92 NSCLC = tested on: HOP-92 NSCLC
A498 renal = tested on: A498 renal
ACHN renal = tested on: ACHN renal
HCC-2998 colon = tested on: HCC-2998 colon
CAKI-1 renal = tested on: CAKI-1 renal
SK-MEL-5 melanoma = tested on: SK-MEL-5 melanoma
UO-31 renal = tested on: UO-31 renal
RPMI-8226 leukemia = tested on: RPMI-8226 leukemia

With `COc1cc(-c2cc(/C=C3\C(=O)Nc4cc(Cl)ccc43)[nH]n2)cc(OC)c1OC` the GI50 (LOX IMVI melanoma) was 1.81 µM, the TGI (LOX IMVI melanoma) was 4.06 µM and the GI50 (T-47D breast) was 2.13 µM. The TGI (T-47D breast) was 6.79 µM, the GI50 (SK-OV-3 ovarian) was 3.29 µM and the TGI (SK-OV-3 ovarian) was 25.1 µM. For the same compound, the GI50 (OVCAR-4 ovarian) was 2.91 µM, the TGI (OVCAR-4 ovarian) was 15 µM and the GI50 (MOLT-4 leukemia) was 2.48 µM. The TGI (MOLT-4 leukemia) was 6.43 µM, the GI50 (OVCAR-8 ovarian) was 2.17 µM and the TGI (OVCAR-8 ovarian) was 5.32 µM. It also gave a GI50 (HCT-15 colon) of 2.59 µM, a TGI (HCT-15 colon) of 7.77 µM and a GI50 (OVCAR-3 ovarian) of 2.74 µM. The TGI (OVCAR-3 ovarian) was 15.1 µM, the GI50 (SW-620 colon) was 2.87 µM and the TGI (SW-620 colon) was 14.9 µM. It also gave a GI50 (HS 578T breast) of 2.74 µM, a TGI (HS 578T breast) of 9.31 µM and a GI50 (A549 NSCLC) of 3.23 µM. For the same compound, the TGI (A549 NSCLC) was 15 µM, the GI50 (SF-268 CNS) was 3.36 µM and the TGI (SF-268 CNS) was 29.1 µM. It also gave a GI50 (HCT-116 colon) of 2.74 µM, a TGI (HCT-116 colon) of 10.3 µM and a GI50 (HOP-62 NSCLC) of 2.16 µM. For the same compound, the TGI (HOP-62 NSCLC) was 6.46 µM, the GI50 (SNB-19 CNS) was 3.45 µM and the TGI (SNB-19 CNS) was > 100 µM. For the same compound, the GI50 (M14 melanoma) was 2.42 µM, the TGI (M14 melanoma) was 6.99 µM and the GI50 (DU-145 prostate) was 3.46 µM. It also gave a TGI (DU-145 prostate) of 14.5 µM, a GI50 (PC-3 prostate) of 2.25 µM and a TGI (PC-3 prostate) of 7.83 µM. For the same compound, the GI50 (NCI-H226 lung) was 2.29 µM, the TGI (NCI-H226 lung) was 7.94 µM and the GI50 (MDA-MB-231 breast) was 3.14 µM. The TGI (MDA-MB-231 breast) was > 100 µM, the GI50 (786-0 renal) was 14.4 µM and the TGI (786-0 renal) was 60.1 µM. It also gave a GI50 (MDA-MB-435) of 1.96 µM, a TGI (MDA-MB-435) of 4.18 µM and a GI50 (COLO 205 colon) of 1.93 µM. For the same compound, the TGI (COLO 205 colon) was 4.36 µM, the GI50 (NCI-H460 lung) was 2.1 µM and the TGI (NCI-H460 lung) was 4.9 µM. For the same compound, the GI50 (KM12 colon) was 2.27 µM, the TGI (KM12 colon) was 6.93 µM and the GI50 (OVCAR-5 ovarian) was 4.27 µM. For the same compound, the TGI (OVCAR-5 ovarian) was 78.1 µM, the GI50 (K-562 leukemia) was 2.82 µM and the TGI (K-562 leukemia) was 22.6 µM. It also gave a GI50 (MCF7 breast) of 2.26 µM, a TGI (MCF7 breast) of 6.39 µM and a GI50 (UACC-257 melanoma) of 2.43 µM. It also gave a TGI (UACC-257 melanoma) of 6.13 µM, a GI50 (TK-10 renal) of 5.95 µM and a TGI (TK-10 renal) of 32.3 µM. It also gave a GI50 (SK-MEL-2 melanoma) of 2.75 µM, a TGI (SK-MEL-2 melanoma) of 7.5 µM and a GI50 (SNB-75 CNS) of 1.87 µM. The TGI (SNB-75 CNS) was 8.17 µM, the GI50 (NCI-H522 lung) was 2.4 µM and the TGI (NCI-H522 lung) was 6.09 µM. For the same compound, the GI50 (UACC-62 melanoma) was 1.76 µM, the TGI (UACC-62 melanoma) was 4.3 µM and the GI50 (U251 CNS) was 2.84 µM. The TGI (U251 CNS) was 14.8 µM, the GI50 (HL-60(TB) leukemia) was 2.45 µM and the TGI (HL-60(TB) leukemia) was 7.59 µM. The GI50 (NCI-H23 lung) was 3.84 µM, the TGI (NCI-H23 lung) was 18.1 µM and the GI50 (SN12C renal) was 2.68 µM. For the same compound, the TGI (SN12C renal) was 14.2 µM, the GI50 (BT-549 breast) was 2.54 µM and the TGI (BT-549 breast) was 7.58 µM. The GI50 (HT29 colon) was 3.46 µM, the TGI (HT29 colon) was 18.6 µM and the GI50 (IGROV1 ovarian) was 3.45 µM. It also gave a TGI (IGROV1 ovarian) of 37.2 µM, a GI50 (SF-539 CNS) of 3.92 µM and a TGI (SF-539 CNS) of 21.8 µM. The GI50 (NCI/ADR-RES ovarian) was 2.74 µM, the TGI (NCI/ADR-RES ovarian) was 7.49 µM and the GI50 (MALME-3M melanoma) was 2.71 µM. The TGI (MALME-3M melanoma) was 6.96 µM, the GI50 (SR leukemia) was 2.33 µM and the TGI (SR leukemia) was 5.66 µM. It also gave a GI50 (SF-295 CNS) of 2.84 µM, a TGI (SF-295 CNS) of 8.89 µM and a GI50 (CCRF-CEM leukemia) of 2.63 µM. For the same compound, the TGI (CCRF-CEM leukemia) was 8.43 µM, the GI50 (SK-MEL-28 melanoma) was 3.91 µM and the TGI (SK-MEL-28 melanoma) was 26.4 µM. The GI50 (RXF 393 renal) was 5.66 µM, the TGI (RXF 393 renal) was 42 µM and the GI50 (HOP-92 NSCLC) was 1.77 µM. The TGI (HOP-92 NSCLC) was 8.89 µM, the GI50 (A498 renal) was 2.24 µM and the TGI (A498 renal) was 8.22 µM. For the same compound, the GI50 (ACHN renal) was 3.48 µM, the TGI (ACHN renal) was 25.6 µM and the GI50 (HCC-2998 colon) was 7.42 µM. The TGI (HCC-2998 colon) was > 100 µM, the GI50 (CAKI-1 renal) was 2.71 µM and the TGI (CAKI-1 renal) was 22.5 µM. It also gave a GI50 (SK-MEL-5 melanoma) of 1.43 µM, a TGI (SK-MEL-5 melanoma) of 2.79 µM and a GI50 (UO-31 renal) of 2.66 µM. For the same compound, the TGI (UO-31 renal) was 15.6 µM, the GI50 (RPMI-8226 leukemia) was 2.02 µM and the TGI (RPMI-8226 leukemia) was 4.92 µM.
